Data reported in ChEMBL document CHEMBL1201862, “PubChem BioAssay data set” (2004).
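Following 48 hours of exposure in 96-well plates, responses at five concentrations were used to interpolate endpoints linearly. Abbreviation: GI50, concentration required for 50% inhibition of growth.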 The source made the active and inactive calls. Rule as the data show it: active = GI50 up to about 1.1 µM and inactive = higher.

How the values were obtained:
Experiment in all cases: NCI tumour cell line growth inhibition, 48 h
SN12C = tested on: SN12C
UACC-257 = tested on: UACC-257
NCI-H226 = tested on: NCI-H226
A549 = tested on: A549
SNB-75 = tested on: SNB-75
Malme-3M = tested on: Malme-3M
ACHN = tested on: ACHN
EKVX = tested on: EKVX
NCI-H522 = tested on: NCI-H522
A498 = tested on: A498
COLO 205 = tested on: COLO 205
SNB-19 = tested on: SNB-19
CCRF-CEM = tested on: CCRF-CEM
U-251 = tested on: U-251
T47D = tested on: T47D
MDA-MB-435 = tested on: MDA-MB-435
BT-549 = tested on: BT-549
NCI/ADR-RES = tested on: NCI/ADR-RES
Hs-578T = tested on: Hs-578T

SMILES | GI50 (SN12C) | GI50 (UACC-257) | GI50 (NCI-H226) | GI50 (A549) | GI50 (SNB-75) | GI50 (Malme-3M) | GI50 (ACHN) | GI50 (EKVX) | GI50 (NCI-H522) | GI50 (A498) | GI50 (COLO 205) | GI50 (SNB-19) | GI50 (CCRF-CEM) | GI50 (U-251) | GI50 (T47D) | GI50 (MDA-MB-435) | GI50 (BT-549) | GI50 (NCI/ADR-RES) | GI50 (Hs-578T)
CC1SC2=NC3=C(c4ccccc4C3=O)C(c3ccc(Br)cc3)N2C1=O (stereo not drawn) | 37.8 µM (inactive) | > 100 µM (inactive) | 23.2 µM (inactive) | 57.7 µM (inactive) | 24.5 µM (inactive) | 44.3 µM (inactive) | > 100 µM (inactive) | 60 µM (inactive) | 19.3 µM (inactive) | > 100 µM (inactive) | 90.2 µM (inactive) | 38 µM (inactive) | 33.3 µM (inactive) | 35.5 µM (inactive) |  |  |  |  | 
O=c1[nH]ncc2[nH]c3c4ccccc4ccc3c12 |  |  |  | 22.2 µM (inactive) |  | 19.6 µM (inactive) | 27.9 µM (inactive) | 10.8 µM (inactive) | 19 µM (inactive) |  | 24.2 µM (inactive) |  | 46.3 µM (inactive) | 24.8 µM (inactive) | 52.8 µM (inactive) | 18 µM (inactive) | 93.8 µM (inactive) | > 100 µM (inactive) | 
Cc1ccc([S+]([O-])c2cccs2)cc1 (stereo not drawn) | > 100 µM (inactive) | > 100 µM (inactive) | > 100 µM (inactive) | > 100 µM (inactive) |  | > 100 µM (inactive) | > 100 µM (inactive) | > 100 µM (inactive) |  | 38.1 µM (inactive) | > 100 µM (inactive) | > 100 µM (inactive) | > 100 µM (inactive) | > 100 µM (inactive) | > 100 µM (inactive) | > 100 µM (inactive) | > 100 µM (inactive) | > 100 µM (inactive) | 
O=[N+]([O-])c1nccn1CC(O)c1ccc(F)cc1 (stereo not drawn) | > 100 µM (inactive) | > 100 µM (inactive) | > 100 µM (inactive) | > 100 µM (inactive) | > 100 µM (inactive) | > 100 µM (inactive) | > 100 µM (inactive) | > 100 µM (inactive) | > 100 µM (inactive) | > 100 µM (inactive) | > 100 µM (inactive) | > 100 µM (inactive) | > 100 µM (inactive) | > 100 µM (inactive) |  |  |  |  | 
CCOC(CN(C)C(=S)Nc1cccc2ccccc12)OCC | > 10 µM (inactive) | > 10 µM (inactive) | > 10 µM (inactive) | > 10 µM (inactive) | > 10 µM (inactive) | > 10 µM (inactive) | > 10 µM (inactive) | > 10 µM (inactive) | > 10 µM (inactive) | 6.95 µM (inactive) | > 10 µM (inactive) | > 10 µM (inactive) | > 10 µM (inactive) | > 10 µM (inactive) | > 10 µM (inactive) | > 10 µM (inactive) |  | > 10 µM (inactive) | > 10 µM (inactive)
CC(=O)O[C@H]1C(=O)[C@@]2(C)C(C(OC(=O)c3ccccc3)[C@]3(O)CC(OC(=O)C(O)C(NC(=O)c4ccccc4)c4cccc(Cl)c4)C(C)=C1C3(C)C)[C@]1(OC(C)=O)CO[C@@H]1C[C@@H]2O (stereo partly drawn) | 4.17 µM (inactive) | 9.46 µM (inactive) | > 10 µM (inactive) | 7.64 µM (inactive) | 2.62 µM (inactive) | > 10 µM (inactive) | > 10 µM (inactive) | 7.23 µM (inactive) | 3.18 µM (inactive) |  | 3.1 µM (inactive) | > 10 µM (inactive) | 2.62 µM (inactive) | 4.95 µM (inactive) | 8.15 µM (inactive) | 1.55 µM (inactive) | > 10 µM (inactive) | > 10 µM (inactive) | 
c1ccc(COc2ccc(C[P+](c3ccccc3)(c3ccccc3)c3ccccc3)cc2)cc1 | 0.305 µM (active) | 0.269 µM (active) | 0.504 µM (active) | 0.184 µM (active) | 0.148 µM (active) | 0.361 µM (active) | 0.676 µM (active) | 0.233 µM (active) | 0.195 µM (active) | 1.1 µM (active) | 0.129 µM (active) | 0.354 µM (active) | 0.627 µM (active) | 0.102 µM (active) | < 0.0175 µM (active) | 0.225 µM (active) | 0.139 µM (active) | 13.4 µM (inactive) | 
[N-]=[N+]=CC(=O)COC(=O)c1ccccc1 | > 100 µM (inactive) | > 100 µM (inactive) | > 100 µM (inactive) | 74.1 µM (inactive) | > 100 µM (inactive) | > 100 µM (inactive) | > 100 µM (inactive) | > 100 µM (inactive) | > 100 µM (inactive) | > 100 µM (inactive) | > 100 µM (inactive) | > 100 µM (inactive) | > 100 µM (inactive) | > 100 µM (inactive) | > 100 µM (inactive) | > 100 µM (inactive) | > 100 µM (inactive) | > 100 µM (inactive) | 
N[C@H]1CCc2c1nc1c(c2-c2ccccc2)CC[C@@H]1N | 44.1 µM (inactive) | > 10 µM (inactive) | 33.6 µM (inactive) | 34 µM (inactive) | 11.9 µM (inactive) | 16.7 µM (inactive) | 40.1 µM (inactive) | > 100 µM (inactive) | 16.2 µM (inactive) |  | 20.6 µM (inactive) | 82.8 µM (inactive) | 17.6 µM (inactive) | 20.5 µM (inactive) |  | 15.8 µM (inactive) | 12.4 µM (inactive) | 46.9 µM (inactive) | 
N#CCCCCCOCCOCCOCCOCCOCCCCCC#N | > 100 µM (inactive) | 81.1 µM (inactive) | > 100 µM (inactive) | > 100 µM (inactive) | > 100 µM (inactive) | > 100 µM (inactive) | > 100 µM (inactive) | > 100 µM (inactive) | > 100 µM (inactive) | > 100 µM (inactive) | > 100 µM (inactive) | > 100 µM (inactive) | > 100 µM (inactive) | > 100 µM (inactive) |  |  |  |  | 
COC(=O)c1nc(Cl)nc(Cl)c1Cl | 20.9 µM (inactive) |  | 27 µM (inactive) | 44.1 µM (inactive) | 87.7 µM (inactive) | 20.8 µM (inactive) | 14.4 µM (inactive) |  | 19.3 µM (inactive) |  | 18.6 µM (inactive) | 83.8 µM (inactive) | 6.49 µM (inactive) | 26.1 µM (inactive) | 24.3 µM (inactive) | 15.8 µM (inactive) |  | 33.8 µM (inactive) | 21.8 µM (inactive)
COc1cccc2c(NNc3ccccc3)c3ccc([N+](=O)[O-])cc3nc12 | 47.1 µM (inactive) | 29.9 µM (inactive) | 24.9 µM (inactive) | 24.2 µM (inactive) |  | 54.3 µM (inactive) | 20.2 µM (inactive) | 78.2 µM (inactive) | 24.7 µM (inactive) | 43.5 µM (inactive) | 46.3 µM (inactive) | > 100 µM (inactive) | 12.5 µM (inactive) | 21.2 µM (inactive) | 36.4 µM (inactive) | 18.1 µM (inactive) | 12.1 µM (inactive) | 41.5 µM (inactive) | 
COc1cc(/C=C/C(=O)OC2C(O)C3CC(OC(=O)c4cc(OC)c(OC)c(OC)c4)CC2N3C)cc(OC)c1OC (stereo not drawn) | 9.89 µM (inactive) | > 50 µM (inactive) | 12.1 µM (inactive) | > 50 µM (inactive) | 8.73 µM (inactive) |  | 21.9 µM (inactive) | > 50 µM (inactive) | 19.5 µM (inactive) | 8.04 µM (inactive) | 12.3 µM (inactive) | 12.9 µM (inactive) | 17.9 µM (inactive) | 40.5 µM (inactive) | 14.5 µM (inactive) | 23.6 µM (inactive) | > 50 µM (inactive) | 13.7 µM (inactive) | 
CSc1nc(-c2ccccc2)c2c(n1)-c1ccccc1CC2 | > 100 µM (inactive) | > 100 µM (inactive) | > 100 µM (inactive) | > 100 µM (inactive) | > 100 µM (inactive) | > 100 µM (inactive) |  | > 100 µM (inactive) | > 100 µM (inactive) | > 100 µM (inactive) | > 100 µM (inactive) | > 100 µM (inactive) | > 100 µM (inactive) | > 100 µM (inactive) |  |  |  |  | 
O=C1CN(c2cccc(C(F)(F)F)c2)C(=O)CN1CCN1CC(=O)N(c2cccc(C(F)(F)F)c2)CC1=O | > 100 µM (inactive) | > 100 µM (inactive) |  | > 100 µM (inactive) | > 100 µM (inactive) |  | > 100 µM (inactive) | > 100 µM (inactive) | > 100 µM (inactive) |  | > 100 µM (inactive) | > 100 µM (inactive) | > 100 µM (inactive) | > 100 µM (inactive) | > 100 µM (inactive) | > 100 µM (inactive) |  | > 100 µM (inactive) | > 100 µM (inactive)
COC1=CC(=O)c2c(cc(COP(N)(=O)N(CCBr)CCBr)n2C)C1=O (stereo not drawn) | < 0.01 µM (active) | 1.2 µM (inactive) | < 0.01 µM (active) | < 0.01 µM (active) | < 0.01 µM (active) | 0.308 µM (active) | < 0.01 µM (active) | 0.0212 µM (active) | < 0.01 µM (active) | 1.26 µM (inactive) | 0.0242 µM (active) | 1.3 µM (inactive) | < 0.01 µM (active) | < 0.01 µM (active) | < 0.01 µM (active) | 1.16 µM (inactive) |  | 0.184 µM (active) | 
COC(=O)/C=C1\CCC(C)(C(=O)NS(=O)(=O)c2ccc(C)cc2)C1(C)C (stereo not drawn) | > 100 µM (inactive) | > 100 µM (inactive) | > 100 µM (inactive) | > 100 µM (inactive) |  | > 100 µM (inactive) | > 100 µM (inactive) | > 100 µM (inactive) | > 100 µM (inactive) | > 100 µM (inactive) | > 100 µM (inactive) | > 100 µM (inactive) | > 100 µM (inactive) | > 100 µM (inactive) | > 100 µM (inactive) | 4.48 µM (inactive) | > 100 µM (inactive) | > 100 µM (inactive) | 
